The results in this text go back to PubChem BioAssay AID1963960 (Molecular Pharmacology Branch, DTP, NCI, 2024).

The structures appear in SMILES notation. Several values for one entry are separate records, joined by “and”; a condition that tells them apart may be missing. Equal entries are not always repeated.

The subject of the test is MDA-MB-468 spheroids with HUVEC/MSC, viability. Nature of the test: Anticancer human tumor MDA-MB-468 cell line growth inhibition [PI3K].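 As to all read-outs here: spheroids exposed to agents for seven days before readout.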 The conditions noted are these: for viability, T/C: stronger effect = lower value. The source says: Combinatorial screen of targeted agents with the PI3K inhibitors inavolisib, alpelisib, duvelisib, and copanlisib in multi-cell type tumor spheroids
A high-throughput screen of multi-cell type tumor spheroids was designed to identify active combinations of targeted small molecules and PI3K pathway inhibitors. Complex spheroids include a stromal component modeled by human endothelial cells (HUVEC) and fibroblasts modeled by human mesenchymal stem cells (MSCs). The concentration ranges selected for each drug and investigational agent were based upon clinically achievable concentrations if the clinical Cmax of the agent was known.
Compounds. The drugs and investigational agents: inavolisib (NSC800729), alpelisib (NSC765974), duvelisib (NSC772469), copanlisib (NSC816437), ipatasertib (NSC767898), afuresertib (NSC778305), talazoparib (NSC767125), sapanisertib (NSC764658), selumetinib (NSC741078), tovorafenib (DAY101, NSC766906), vemurafenib (NSC761431), ravoxertinib (NSC781343), sotorasib (NSC818433), MRTX1133 (NSC 836407), abemaciclib (NSC 768073), palbociclib (NSC758247), venetoclax (NSC 766270), SY5609 (NSC837396), enzalutamide (NSC755605), and darolutamide (NSC825331), were obtained from the National Cancer Institute (NCI) Developmental Therapeutics Program Chemical Repository. The FDA-approved anticancer drug set is available from the NCI Developmental Therapeutics Program. […] The stock solutions were prepared in dimethyl sulfoxide (DMSO, Sigma-Aldrich, St. Louis, MO, cat. D2650) at 800-fold the tested concentration and stored at -70 degrees C prior to their use. All drugs and investigational agents were tested over a range starting from a high concentration at or near the clinical Cmax and decreasing in half-log increments. If the clinical Cmax for an agent had not been determined, the highest concentration tested was 10 microM.
Cell Culture. All cells were maintained in an incubator at 37 degrees C and 5% CO2 with 95% humidity. The PDC lines were cultured according to standard operating procedures established by the NCI PDMR (https://pdmr.cancer.gov/sops/default.htm). All PDCs were thawed and cultured in Matrigel-coated flasks prepared with a working solution of 1X Ham's F-12 nutrient mix, without supplementation (Invitrogen, Waltham, MA, cat. 11765054), 100 U/mL penicillin-streptomycin (Invitrogen, cat. 15140122), and 2.5% Matrigel (Corning Inc., Corning, NY, cat. 354248) for the first three passages. The 354836-022-R-J1-PDC, 475296-252-R-J1-PDC, and 997726-040-R-J2-PDC lines were cultured in 6A media, which includes advanced DMEM/F-12 (Thermo Fisher Scientific, cat. 12634028), 10 mM HEPES (Thermo Fisher Scientific, cat. 15630080), 1X GlutaMAX supplement (Thermo Fisher Scientific, cat. 35050061), 0.1 mg/mL primocin (InvivoGen, San Diego, CA, cat. ant-pm-2), 10% defined fetal bovine serum, heat inactivated (HyClone Laboratories Inc., Logan, UT, cat. SH30070.03HI), 50% L-WRN conditioned media (ATCC, cat. CRL-3276), 1.25 mM N-Acetyl-L-cysteine (Sigma-Aldrich, cat. A9165), 10 mM nicotinamide (Sigma-Aldrich, cat. N0636), 1X B-27 supplement (Thermo Fisher Scientific, cat. 17504044), 1X N-2 supplement (Thermo Fisher Scientific, cat. 17502048), and 10 microM Y-27632 dihydrochloride (Tocris Bioscience, Bristol, United Kingdom, cat. 1254). The 624824-186-R-J2-PDC line was cultured in 6C/Colon 1B media, which includes all 6A media components plus 50 ng/mL human EGF recombinant protein (Thermo Fisher Scientific, cat. PHG0311). […]

For orientation: viability, T/C means the result in the treated group divided by that in the control group, in per cent. A word on the IC50: it is the midpoint of a concentration-inhibition curve. Turning to `C#Cc1c(F)ccc2cc(O)cc(-c3ncc4c(N5CC6CCC(C5)N6)nc(OCC56CCCN5CC(F)C6)nc4c3F)c12` (stereo not drawn), the viability, T/C is, setting by setting: (compound 0.0316 µM) 81.9% [middle of 4 runs]; (compound 0.1 µM) 92.6% [middle of 4 runs]; (compound 0.316 µM) 92.2% [middle of 4 runs]; (compound 1 µM) 100% [middle of 4 runs]; (compound 10 µM) 55.1% [middle of 4 runs]. The IC50 (curve of compound) was > 10 µM and 9.96 µM.
On to `C=CC(=O)N1CCN(c2nc(=O)n(-c3c(C)ccnc3C(C)C)c3nc(-c4c(O)cccc4F)c(F)cc23)C(C)C1` (stereo not drawn), for which the viability, T/C is, setting by setting: (compound 0.0316 µM) 94.1% [middle of 4 runs]; (compound 0.1 µM) 96.2% [middle of 4 runs]; (compound 1 µM) 107% (2×) and 89.3% and 105%; (compound 3.16 µM) 101% [middle of 4 runs]; (compound 10 µM) 78.6% [middle of 4 runs]. Where the note is “curve of compound”, the IC50 was over 10 µM.
Regarding `CC1(C)CCC(Nc2ncc(C(F)(F)F)c(-c3c[nH]c4c(P(C)(C)=O)c(C#N)ccc34)n2)CN1` (stereo not drawn), the viability, T/C (compound 0.0316 µM) is 12% [middle of 4 runs]; the viability, T/C (compound 0.1 µM) was 10.6% [middle of 4 runs]; the viability, T/C (compound 0.316 µM) was 9.01% [middle of 4 runs]; the viability, T/C (compound 1 µM) is 7.86% [middle of 4 runs]; the viability, T/C (compound 3.16 µM) was 8.98% [middle of 4 runs]; the viability, T/C (compound 10 µM) was 1.71% [middle of 4 runs]. Also, the IC50 (curve of compound) is under 0.0316 µM.
As for `CCCS(=O)(=O)Nc1ccc(F)c(C(=O)c2c[nH]c3ncc(-c4ccc(Cl)cc4)cc23)c1F`, the viability, T/C by setting is: (compound 0.316 µM) 107% [middle of 4 runs]; (compound 1 µM) 97.7% [middle of 4 runs]; (compound 3.16 µM) 78.9% [middle of 4 runs]; (compound 10 µM) 16.4% [middle of 4 runs]. Also, where the note is “curve of compound”, the IC50 was 5.5 µM [middle of 4 runs].
Turning to `Cn1ncc(Cl)c1-c1cc(C(=O)NC(CN)Cc2cccc(F)c2)sc1Cl` (stereo not drawn), the viability, T/C was 86.1% [middle of 4 runs] (compound 0.0316 µM); 69.6% and 66.7% (2×) and 83% (compound 0.1 µM); 53.9% [middle of 4 runs] (compound 0.316 µM); 34.2% [middle of 4 runs] (compound 1 µM); 29.6% [middle of 4 runs] (compound 3.16 µM); 15.4% [middle of 4 runs] (compound 10 µM). The IC50 (curve of compound) is 462 nM [middle of 4 runs].
For the compound `Cn1cnc2c(F)c(Nc3ccc(Br)cc3Cl)c(C(=O)NOCCO)cc21` + CC(Nc1ccc2c(c1)OCCn1cc(N3C(=O)OCC3C(F)F)nc1-2)C(N)=O, the IC50 by setting is: (curve of first compound, second compound 0.00316 µM) over 3 µM; (curve of first compound, second compound 0.01 µM) over 3 µM; (curve of first compound, second compound 0.0316 µM) over 3 µM; (curve of first compound, second compound 0.1 µM) over 3 µM; (curve of first compound, second compound 0.316 µM) over 3 µM; (curve of first compound, second compound 1 µM) 1.52 µM. Also, the viability, T/C by setting is: (second compound 0.00316 µM, first compound 0.00949 µM) 83.2%; (second compound 0.00316 µM, first compound 0.03 µM) 78.1%; (second compound 0.00316 µM, first compound 0.0949 µM) 81.8%; (second compound 0.00316 µM, first compound 0.3 µM) 92.6%; (second compound 0.00316 µM, first compound 0.949 µM) 87.3%; (second compound 0.00316 µM, first compound 3 µM) 56.7%. Moreover, the viability, T/C (second compound 0.01 µM, first compound 0.00949 µM) is 80%; the viability, T/C (second compound 0.01 µM, first compound 0.03 µM) was 88.9%; the viability, T/C (second compound 0.01 µM, first compound 0.0949 µM) is 79.9%; the viability, T/C (second compound 0.01 µM, first compound 0.3 µM) was 90.4%; the viability, T/C (second compound 0.01 µM, first compound 0.949 µM) is 73.9%; the viability, T/C (second compound 0.01 µM, first compound 3 µM) is 61.9%. Moreover, the viability, T/C reads like this: (second compound 0.0316 µM, first compound 0.00949 µM) 103%; (second compound 0.0316 µM, first compound 0.03 µM) 86.4%; (second compound 0.0316 µM, first compound 0.0949 µM) 86.3%; (second compound 0.0316 µM, first compound 0.3 µM) 83%; (second compound 0.0316 µM, first compound 0.949 µM) 63.9%; (second compound 0.0316 µM, first compound 3 µM) 58.6%. For the same compound, the viability, T/C (second compound 0.1 µM, first compound 0.00949 µM) was 91.3%; the viability, T/C (second compound 0.1 µM, first compound 0.03 µM) is 73.5%; the viability, T/C (second compound 0.1 µM, first compound 0.0949 µM) was 70.5%; the viability, T/C (second compound 0.1 µM, first compound 0.3 µM) was 77.5%; the viability, T/C (second compound 0.1 µM, first compound 0.949 µM) was 66.7%; the viability, T/C (second compound 0.1 µM, first compound 3 µM) was 48.9%. Besides, the viability, T/C was 81.3% (second compound 0.316 µM, first compound 0.00949 µM); 78.6% (second compound 0.316 µM, first compound 0.03 µM); 64.4% (second compound 0.316 µM, first compound 0.0949 µM); 67% (second compound 0.316 µM, first compound 0.3 µM); 64.1% (second compound 0.316 µM, first compound 0.949 µM); 48.9% (second compound 0.316 µM, first compound 3 µM). The viability, T/C runs as follows: (second compound 1 µM, first compound 0.00949 µM) 79.4%; (second compound 1 µM, first compound 0.03 µM) 63.7%; (second compound 1 µM, first compound 0.0949 µM) 77%; (second compound 1 µM, first compound 0.3 µM) 69.7%; (second compound 1 µM, first compound 0.949 µM) 55.1%; (second compound 1 µM, first compound 3 µM) 39%.
